These results are taken from patent US5965701A, “Kappa receptor opioid peptides” (priority 1997, dated 1999).

Values joined by “and” are separate entries in the source; they are usually repeats but may differ in a detail not shown here. Equal entries are not always repeated. Where a SMILES comes first, the peptide text is derived from it. [ ]: non-standard residue; d: D form. The star is where a group is joined. dPhe(3,4-Cl2) = N[C@H](Cc1ccc(Cl)c(Cl)c1)C(=O)O; dPhe(4-CH2NH2) = NCc1ccc(C[C@@H](N)C(=O)O)cc1; dPhe(4-Cl) = N[C@H](Cc1ccc(Cl)cc1)C(=O)O; dPhe(4-F) = N[C@H](Cc1ccc(F)cc1)C(=O)O; d2Nal = N[C@H](Cc1ccc2ccccc2c1)C(=O)O; d2Thi = N[C@H](Cc1cccs1)C(=O)O; NH(3-picolyl) = c1cncc(CN*)c1; NH(4-picolyl) = c1cc(CN*)ccn1; dNle = CCCC[C@@H](N)C(=O)O; Morpholide = C1CN(*)CCO1; Piperidide = C1CCN(*)CC1; NHCH2CH2OH = OCCN*; X2 = OC1CCN(*)CC1; X1 = C1CN(*)CCS1; NHBu = CCCCN*

Broadly, the Ki is the dissociation constant of the complex between target and ligand, obtained from inhibition or displacement.

Assay [1] has as its target T1, cloned human mu opioid (hMOR) receptor (Homo sapiens, UniProt P35372).
T1 construct: expressed in transfected cells; host or cells: HN9.10 (mouse hippocampal neuroblastoma), stably transfected
Kind of assay: Competition binding at cloned hMOR, displacement of 3H-DAMGO. As to conditions: hMOR stably expressed in HN.9.10 cells, read-out: Ki MOR. Background: Loss of bound radioactivity is the signal in a displacement assay; it reports binding, not function.

Assay [2] deals with conscious male ICR mice. Put plainly: Mouse acetic acid writhing test (WT). The format is in vivo. As to conditions: for WT-ED50: i.v., 5 minutes before acetic acid i.p., writhes over 15 minutes; for % Antinociception 1 hr / % Antinociception 2 hr: submaximal effective dose i.v., percentage of the activity found at -5 min; for % Antinociception 1 hr: 60 min pretreatment; for % Antinociception 2 hr: 120 min pretreatment. Here is the method: Selected peptides that are identified in Tables A-G have been further specifically subjected to in vivo testing for determination of duration of action of their opioid properties, and the results are reported in Table H hereinafter. The peptide numbers correspond to those in the earlier tables and the figures with regard to μ/K ratio are simply carried over for reference purposes. The in vivo testing is carried out using a mouse writhing test (WT) that is well-suited for determining the length of duration of antinociceptive biological activity. This test is described in detail in an article by G. A. Bentley et al., Br. J. Phamac., 73:325-332, 1981, and it employs conscious male ICR mice which are purchased from Harlan and which weigh between 20 and 30 grams. The mice are fasted for 12 to 16 hours prior to beginning the test. The nociceptive behavior, i.e. writhing, to be monitored is induced by the intraperitoneal (i.p.) administration of dilute acetic acid. 10 milliliters of 0.6% aqueous acetic acid is used per kg of body weight. Writhing is scored during the 15 minutes following acetic acid administration. In a first step, compounds are tested at 3 to 4 increasing doses, given by intravenous route, and at one unique pretreatment time (-5 minutes before acetic acid injection). […] In a second step, this submaximal effective dose for each specific peptide is administered at various pretreatment times (i.e. -5 minutes, -60 minutes, -120 minutes and -180 minutes) prior to the administration of the acetic acid in order to determine the duration of action. Throughout the test, a control group of mice are used which are administered only the vehicle without the candidate peptide. The number of writhes are counted over a 15-minute period, starting from the time of acetic acid injection, and bioactivity, i.e. antinociception, is expressed as a percentage, and is calculated as follows:
100×(writhes in control group-writhes in treated group)/writhes in
Values higher than 100% indicate greater antinociception than at the beginning of the experiment. It is felt that the opioid peptide should be effective to reduce writhing by at least about 25% at a time of 1 hour to be considered to have long duration of in vivo action.
In addition to using this test to determine duration of antinociceptive activity, it is also used to measure the in vivo biopotency (short term) of the peptide. This value is given in the table under the heading WT-ED50 in milligrams per kg of body weight. The value is a measure of the dosage necessary to reduce the number of writhes in the mouse being tested by 50% (as compared to a control mouse) over a period of 15 minutes.
Background: Writhing tests count abdominal constrictions after an irritant is injected.

In assay [3] the target is T2, cloned human kappa (hKOR) receptor (Homo sapiens, UniProt P41145).
T2 construct: expressed in transfected cells; host or cells: HN9.10 (mouse hippocampal neuroblastoma), stably transfected
T2 sequence (P41145 whole entry): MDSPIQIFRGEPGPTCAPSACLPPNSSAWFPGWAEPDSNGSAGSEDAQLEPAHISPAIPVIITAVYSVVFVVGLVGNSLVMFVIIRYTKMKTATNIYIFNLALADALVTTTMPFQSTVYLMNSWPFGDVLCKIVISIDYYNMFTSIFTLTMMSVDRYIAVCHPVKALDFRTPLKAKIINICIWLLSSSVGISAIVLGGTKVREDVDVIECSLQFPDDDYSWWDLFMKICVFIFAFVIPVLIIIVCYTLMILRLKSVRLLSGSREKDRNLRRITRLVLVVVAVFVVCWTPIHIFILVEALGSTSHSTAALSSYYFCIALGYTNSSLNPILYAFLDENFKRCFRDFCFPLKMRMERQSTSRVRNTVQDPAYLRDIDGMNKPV
Put plainly: biochemical. As to conditions: for μ/κ Ratio (binding affinity for KOR versus MOR): Ki MOR / Ki KOR; for Ki: read-out: Ki KOR. The format is binding.

T1 sequence (P35372 whole entry): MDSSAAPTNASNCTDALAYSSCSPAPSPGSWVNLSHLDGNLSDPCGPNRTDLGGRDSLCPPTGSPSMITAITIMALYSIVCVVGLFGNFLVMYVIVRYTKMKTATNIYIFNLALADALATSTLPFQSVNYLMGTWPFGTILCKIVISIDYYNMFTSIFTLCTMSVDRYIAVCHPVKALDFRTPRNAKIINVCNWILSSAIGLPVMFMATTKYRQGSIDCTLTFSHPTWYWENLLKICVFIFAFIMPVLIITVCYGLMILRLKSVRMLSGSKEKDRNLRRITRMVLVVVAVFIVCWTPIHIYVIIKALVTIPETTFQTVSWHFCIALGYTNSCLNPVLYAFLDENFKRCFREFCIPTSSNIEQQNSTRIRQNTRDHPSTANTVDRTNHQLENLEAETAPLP

Take `CCCC[C@@H](NC(=O)[C@@H](Cc1ccccc1)NC(=O)[C@H](N)Cc1ccccc1)C(=O)N[C@H](CCCNC(=N)N)C(=O)NC` [Peptide 2, H-D-Phe-D-Phe-D-Nle-D-Arg-NHMe] (H-[dF][dF][dNle][dR]-NHMe): the Ki in assay [1] was found to be 3620 nM. In assay [2], the WT-ED50 is given as 0.14 mg/kg, the “% Antinociception 1 hr” value was found to be 70.5% and the “% Antinociception 2 hr” value worked out at 29.8%. Besides, in assay [3], the “μ/κ Ratio (binding affinity for KOR versus MOR)” value (“μ/κ Ratio” below) was 60,000 and the inhibition constant (Ki) was 0.06 nM.
Turning to `CCCCNC(=O)[C@@H](CCCNC(=N)N)NC(=O)[C@@H](CCCC)NC(=O)[C@@H](Cc1ccccc1)NC(=O)[C@H](N)Cc1ccccc1` [Peptide 4, H-D-Phe-D-Phe-D-Nle-D-Arg-NHBu] (H-[dF][dF][dNle][dR]-NHBu), the Ki in assay [1] was 1370 nM. Moreover, in assay [2], the WT-ED50 is 0.3 mg/kg and 0.30 mg/kg; the “% Antinociception 1 hr” value amounted to 49.3%. In assay [3], the “μ/κ Ratio” value is given as 7,200 and the Ki came out at 0.19 nM.
As for `CCCC[C@@H](NC(=O)[C@@H](Cc1ccccc1)NC(=O)[C@H](N)Cc1ccccc1)C(=O)N[C@H](CCCNC(=N)N)C(=O)NCCO` [Peptide 9, H-D-Phe-D-Phe-D-Nle-D-Arg-NHhEt] (H-[dF][dF][dNle][dR]-NHCH2CH2OH), the Ki in assay [1] amounted to 1010 nM. Also, in assay [2], the WT-ED50 is given as 0.03 mg/kg, the “% Antinociception 1 hr” value is 72.5% and the “% Antinociception 2 hr” value is given as 39.5%. Moreover, in assay [3], the “μ/κ Ratio” value is given as 2,500 and the Ki is 0.4 nM.
Consider `CCCC[C@@H](NC(=O)[C@@H](Cc1ccccc1)NC(=O)[C@H](N)Cc1ccccc1)C(=O)N[C@H](CCCNC(=N)N)C(=O)N1CCSCC1` [Peptide 10, H-D-Phe-D-Phe-D-Nle-D-Arg-Tmo] (H-[dF][dF][dNle][dR]-X1), for which the Ki in assay [1] was 2260 nM. In assay [2], the WT-ED50 was 0.067 mg/kg and 0.07 mg/kg; the “% Antinociception 1 hr” value is recorded as 81.6%; the “% Antinociception 2 hr” value was determined as 47.5%. Also, in assay [3], the “μ/κ Ratio” value is on record as 25,000 and the Ki was determined as 0.09 nM.
As for `CCCC[C@@H](NC(=O)[C@@H](Cc1ccccc1)NC(=O)[C@H](N)Cc1ccccc1)C(=O)N[C@H](CCCNC(=N)N)C(=O)N1CCC(O)CC1` [Peptide 11, H-D-Phe-D-Phe-D-Nle-D-Arg-4-HyP] (H-[dF][dF][dNle][dR]-X2), in assay [1], the inhibitory constant (Ki) came out at 3700 nM. Besides, in assay [2], the WT-ED50 was 0.073 mg/kg and 0.07 mg/kg; the “% Antinociception 1 hr” value was found to be 61.8%; the “% Antinociception 2 hr” value was found to be 36.9%. In assay [3], the “μ/κ Ratio” value is reported as 62,000 and the Ki is 0.06 nM.
On to `CCCC[C@@H](NC(=O)[C@@H](Cc1ccccc1)NC(=O)[C@H](N)Cc1ccccc1)C(=O)N[C@H](CCCNC(=N)N)C(=O)N1CCCCC1` [Peptide 12, H-D-Phe-D-Phe-D-Nle-D-Arg-Pip] (H-[dF][dF][dNle][dR]-Piperidide), for which, in assay [1], the Ki was determined as 1050 nM. For the same molecule, in assay [2], the WT-ED50 was determined as 0.07 mg/kg, the “% Antinociception 1 hr” value was 60.5% and the “% Antinociception 2 hr” value was 53.6%. Moreover, in assay [3], the “μ/κ Ratio” value was 7,000 and the Ki worked out at 0.15 nM.
`CCCC[C@@H](NC(=O)[C@@H](Cc1ccccc1)NC(=O)[C@H](N)Cc1ccccc1)C(=O)N[C@H](CCCNC(=N)N)C(=O)NCc1cccnc1` [Peptide 54, H-D-Phe-D-Phe-D-Nle-D-Arg-NH(3Pic)] (H-[dF][dF][dNle][dR]-{NH(3-picolyl)}): the Ki in assay [1] was determined as 1220 nM. Besides, in assay [3], the “μ/κ Ratio” value is 3,100 and the Ki worked out at 0.39 nM.
The matching figures for `CCCC[C@@H](NC(=O)[C@@H](Cc1ccccc1)NC(=O)[C@H](N)Cc1ccccc1)C(=O)N[C@H](Cc1ccc(CN)cc1)C(=O)NCC` [Peptide 55, H-D-Phe-D-Phe-D-Nle-D-Amf-NHEt] (H-[dF][dF][dNle][dPhe(4-CH2NH2)]-NHEt): 1750 nM, 12,500 and 0.14 nM.
With `CC(C)C[C@@H](NC(=O)[C@@H](Cc1ccc(Cl)cc1)NC(=O)[C@H](N)Cc1cccs1)C(=O)N[C@H](CCCNC(=N)N)C(=O)N1CCOCC1` [Peptide 59, H-D-Ala(2Thi)-D-4Cpa-D-Leu-D-Arg-Mor] (H-[d2Thi][dPhe(4-Cl)][dL][dR]-Morpholide), the Ki in assay [1] was 3360 nM; in assay [3], 0.25 nM.
In the case of `CC(C)C[C@@H](NC(=O)[C@@H](Cc1ccc(Cl)c(Cl)c1)NC(=O)[C@H](N)Cc1cccs1)C(=O)N[C@H](CCCNC(=N)N)C(=O)N1CCOCC1` [Peptide 61, H-D-Ala(2Thi)-D-3,4Cpa-D-Leu-D-Arg-Mor] (H-[d2Thi][dPhe(3,4-Cl2)][dL][dR]-Morpholide), the Ki in assay [1] worked out at 1560 nM. For the same molecule, in assay [3], the “μ/κ Ratio” value is given as 10,400 and the Ki was 0.15 nM.
For `CC(C)C[C@@H](NC(=O)[C@@H](Cc1ccc2ccccc2c1)NC(=O)[C@H](N)Cc1ccc(F)cc1)C(=O)N[C@H](CCCNC(=N)N)C(=O)N1CCOCC1` [Peptide 62, H-D-4Fpa-D-2Nal-D-Leu-D-Arg-Mor] (H-[dPhe(4-F)][d2Nal][dL][dR]-Morpholide), the inhibition constant Ki in assay [1] stood at 1140 nM. Also, in assay [3], the “μ/κ Ratio” value is 3,500 and the inhibition constant Ki was found to be 0.33 nM.
As for `CC(C)C[C@@H](NC(=O)[C@@H](Cc1ccc(Cl)cc1)NC(=O)[C@H](N)Cc1cccs1)C(=O)N[C@H](CCCNC(=N)N)C(=O)NCc1ccncc1` [Peptide 64, H-D-Ala(2Thi)-D-4Cpa-D-Leu-D-Arg-NH(4Pic)] (H-[d2Thi][dPhe(4-Cl)][dL][dR]-{NH(4-picolyl)}), the inhibition constant Ki stood at 2380 nM in assay [1] and 0.31 nM in assay [3].
In the case of `CC(C)C[C@@H](NC(=O)[C@@H](Cc1ccc(Cl)cc1)NC(=O)[C@H](N)Cc1ccc(F)cc1)C(=O)N[C@H](CCCNC(=N)N)C(=O)N1CCOCC1` [Peptide 65, H-D-4Fpa-D-4Cpa-D-Leu-D-Arg-Mor] (H-[dPhe(4-F)][dPhe(4-Cl)][dL][dR]-Morpholide), the Ki in assay [1] is 1900 nM; in assay [3], 0.17 nM.
“H-D-CMP-D-Phe-D-Nle-D-Arg-NH(4Pic) [Peptide 43]”: in assay [3], the “μ/κ Ratio” value was 2,500.
As to “H-D-Phe-D-Phe-D-Acp-D-Arg-NH(4Pic) [Peptide 44]”, in assay [3], the “μ/κ Ratio” value was 8,200.
On the same count and under the same terms, in the case of “H-D-Phe-D-Phe-D-CML-D-Oro-Mor [Peptide 46]” it was 14,000.
Regarding “H-D-Phe-D-Phe-D-Hle-D-Arg-NH(4Pic) [Peptide 45]”, in assay [3], the “μ/κ Ratio” value is 11,000.
With “H-D-Phe-D-Phe-D-Lcu-D-Dbu-Mor [Peptide 53]”, in assay [3], the “μ/κ Ratio” value is on record as 85,000.
In the case of “H-D-Phe-D-Phe-D-Lcu-D-Dbu-NH(4Pic) [Peptide 52]”, in assay [3], the “μ/κ Ratio” value is 92,000.
Still for that read-out and setting: in the case of “H-D-Phe-D-Phe-D-Lcu-D-Lys-Mor [Peptide 49]” it was 92,000; in that of “H-D-Phe-D-Phe-D-Lcu-D-Lys-NH(4Pic) [Peptide 47]”, 30,000; in that of “H-D-Phe-D-Phe-D-Lcu-D-Lys-NHPr [Peptide 48]”, 18,000.
For “H-D-Phe-D-Phe-D-Nle-D-Arg-Ecp [Peptide 42]”, in assay [2], the WT-ED50 turned out to be 0.06 mg/kg, the “% Antinociception 1 hr” value was 45.3% and the “% Antinociception 2 hr” value is on record as 29.4%. Also, in assay [3], the “μ/κ Ratio” value is listed as 27,000.
As for “H-D-Phe-D-Phe-D-Nle-D-Arg-NH-4-Ahz [Peptide 41]”, the “μ/κ Ratio” value in assay [3] is recorded as 12,000.
Consider “H-D-Phe-D-Phe-D-Nle-D-Arg-NH-4Nhz [Peptide 40]”, for which the “μ/κ Ratio” value in assay [3] is listed as 3,800.
Same read-out and setting: in the case of “H-D-Phe-D-Phe-D-Nle-D-Har-Mor [Peptide 51]” it was 12,000.
As to “H-D-Phe-D-Phe-D-Nle-D-Har-NH(4Pic) [Peptide 50]”, the “μ/κ Ratio” value in assay [3] is 9,300.
